# Like-named read-outs stand apart in the source and are kept apart here.
# T1: Dpo4•DNA binary complex (Saccharolobus solfataricus, UniProt Q97W02)
# T1 sequence (Q97W02 1-352): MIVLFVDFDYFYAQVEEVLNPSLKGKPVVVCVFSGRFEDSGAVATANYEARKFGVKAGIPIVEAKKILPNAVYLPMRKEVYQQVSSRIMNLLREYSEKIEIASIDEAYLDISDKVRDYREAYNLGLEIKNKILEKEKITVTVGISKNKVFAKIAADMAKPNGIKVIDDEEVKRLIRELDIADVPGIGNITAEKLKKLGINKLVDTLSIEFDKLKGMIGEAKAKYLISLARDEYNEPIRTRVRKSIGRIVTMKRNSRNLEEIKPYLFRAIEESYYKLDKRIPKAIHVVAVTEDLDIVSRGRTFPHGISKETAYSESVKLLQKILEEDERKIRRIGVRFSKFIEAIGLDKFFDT
# T2: Dpo4 (DNA polymerase IV) (Sulfolobus solfataricus, UniProt Q97W02 1-352)
# T2 sequence: T1 sequence (Q97W02 1-352)
# B1: 22/26-mer-dGC8-N-ABA (dsDNA)
# DNA 1: AACGACGGCCAGTGAATTCGCG
# DNA 2: CCCGCGCGAATTCACTGGCCGTCGTT
# modifications: N-(2'-deoxyguanosin-8-yl)-3-aminobenzanthrone (dGC8-N-ABA) at G6 of strand 2 (from 5' end)
# B2: 21/26-mer-dGC8-N-ABA (dsDNA)
# DNA 1: AACGACGGCCAGTGAATTCGC
# DNA 2: CCCGCGCGAATTCACTGGCCGTCGTT
# modifications: N-(2'-deoxyguanosin-8-yl)-3-aminobenzanthrone (dGC8-N-ABA) at G6 of strand 2 (from 5' end)
# Experiments:
# [1] = tested on: Salmonella typhimurium (TA98); details: cited from earlier work
# Dpo4•DNA binary complex = biological target: T1, Dpo4•DNA binary complex; test: Substrate specificity assay; assay type: biochemical, Sulfolobus solfataricus; details: for Probability: efficiency/sum of efficiencies × 100; for kp / Kd: Dpo4 120 nM, 37 °C; for Fidelity: incorrect/(correct+incorrect) efficiency; for Kd: read-out: Kd,dNTP
# [2] = tested on: nucleotide excision repair-deficient human XPA cells; details: cited from earlier work
# Dpo4 (DNA polymerase IV) = biological target: T2, Dpo4 (DNA polymerase IV); test: EMSA
# [3] = DNA substrate 18/26-mer-dG^C8-N-ABA
# [4] = DNA substrate 18/26-mer-dG^C8-N-ABA vs control 18/26-mer
# [5] = DNA substrate 19/26-mer-dG^C8-N-ABA
# [6] = DNA substrate 19/26-mer-dG^C8-N-ABA 30 nM
# [7] = DNA substrate 19/26-mer-dG^C8-N-ABA vs control 19/26-mer
# [8] = DNA substrate 20/26-mer-dG^C8-N-ABA (pause site)
# [9] = DNA substrate 20/26-mer-dG^C8-N-ABA vs control 20/26-mer
# [10] = DNA substrate 20/26-mer-dG^C8-N-ABA
# [11] = DNA substrate 21/26-mer-dG^C8-N-ABA (pause site)
# [12] = DNA substrate 21/26-mer-dG^C8-N-ABA (pause site) 30 nM
# [13] = DNA substrate 21/26-mer-dG^C8-N-ABA vs control 21/26-mer
# [14] = DNA substrate 21/26-mer-dG^C8-N-ABA
# [15] = DNA substrate 22/26-mer-dG^C8-N-ABA
# [16] = DNA substrate 22/26-mer-dG^C8-N-ABA vs control 22/26-mer
# [17] = DNA substrate 18/26-mer-dG^C8-N-ABA 30 nM
# [18] = DNA substrate 21/26-mer-dG^C8-N-ABA (pause site, extension) 30 nM
# [19] = DNA substrate 22/26-mer-dG^C8-N-ABA 30 nM
# [20] = DNA substrate 20/26-mer-dG^C8-N-ABA (pause site) 30 nM
molecule,measurement,setting,value
"O=C1c2ccccc2-c2ccc([N+](=O)[O-])c3cccc1c23 [3-NBA, 3-Nitrobenzanthrone]",mutagenicity,[1],one of the most mutagenic compound ever tested
Nc1ncnc2c1ncn2[C@H]1C[C@H](O)[C@@H](COP(=O)(O)OP(=O)(O)OP(=O)(O)O)O1 [dATP],"(kp/Kd, dNTP)damaged",Dpo4•DNA binary complex; [3],9.1e-06 µM⁻¹ s⁻¹
same,"Efficiency Ratio (kp/Kd, dNTP)control/(kp/Kd, dNTP)damaged",Dpo4•DNA binary complex; [4],0.85
same,Probability,Dpo4•DNA binary complex; [3],0.01
same,"(kp/Kd, dNTP)damaged",Dpo4•DNA binary complex; [5],6.7e-06 µM⁻¹ s⁻¹
same,kp,Dpo4•DNA binary complex; [6],(2.9 ± 0.2) × 10^−3 s^−1
same,"Efficiency Ratio (kp/Kd, dNTP)control/(kp/Kd, dNTP)damaged",Dpo4•DNA binary complex; [7],2.1
same,Probability,Dpo4•DNA binary complex; [5],0.07
same,Fidelity,Dpo4•DNA binary complex; [5],7.0 × 10^−4
same,"(kp/Kd, dNTP)damaged",Dpo4•DNA binary complex; [8],3e-06 µM⁻¹ s⁻¹
same,"Efficiency Ratio (kp/Kd, dNTP)control/(kp/Kd, dNTP)damaged",Dpo4•DNA binary complex; [9],6.3
same,Probability,Dpo4•DNA binary complex; [10],0.61
same,Fidelity,Dpo4•DNA binary complex; [10],6.1 × 10^−4
same,"(kp/Kd, dNTP)damaged",Dpo4•DNA binary complex; [11],1e-06 µM⁻¹ s⁻¹
same,kp,Dpo4•DNA binary complex; [12],(4.5 ± 0.2) × 10^−4 s^−1
same,"Efficiency Ratio (kp/Kd, dNTP)control/(kp/Kd, dNTP)damaged",Dpo4•DNA binary complex; [13],2.4
same,Probability,Dpo4•DNA binary complex; [14],3.83
same,Fidelity,Dpo4•DNA binary complex; [14],4.3 × 10^−2
same,"(kp/Kd, dNTP)damaged",Dpo4•DNA binary complex; [15],1.1e-05 µM⁻¹ s⁻¹
same,"Efficiency Ratio (kp/Kd, dNTP)control/(kp/Kd, dNTP)damaged",Dpo4•DNA binary complex; [16],0.38
same,Probability,Dpo4•DNA binary complex; [15],0.34
same,Fidelity,Dpo4•DNA binary complex; [15],3.4 × 10^−4
same,Kd,Dpo4•DNA binary complex; [17],2200 ± 600 µM
same,Kd,Dpo4•DNA binary complex; [6],430 ± 60 µM
same,Kd,Dpo4•DNA binary complex; [18],450 ± 50 µM
same,Kd,Dpo4•DNA binary complex; [19],470 ± 70 µM
Nc1ccn([C@H]2C[C@H](O)[C@@H](COP(=O)(O)OP(=O)(O)OP(=O)(O)O)O2)c(=O)n1 [dCTP],"(kp/Kd, dNTP)damaged",Dpo4•DNA binary complex; [3],0.088 µM⁻¹ s⁻¹
same,kp,Dpo4•DNA binary complex; [17],2.83 ± 0.08 s⁻¹
same,"Efficiency Ratio (kp/Kd, dNTP)control/(kp/Kd, dNTP)damaged",Dpo4•DNA binary complex; [4],1.25
same,Probability,Dpo4•DNA binary complex; [3],99.95
same,"(kp/Kd, dNTP)damaged",Dpo4•DNA binary complex; [5],6.4e-06 µM⁻¹ s⁻¹
same,kp,Dpo4•DNA binary complex; [6],(1.4 ± 0.2) × 10^−3 s^−1
same,"Efficiency Ratio (kp/Kd, dNTP)control/(kp/Kd, dNTP)damaged",Dpo4•DNA binary complex; [7],22
same,Probability,Dpo4•DNA binary complex; [5],0.06
same,Fidelity,Dpo4•DNA binary complex; [5],6.7 × 10^−4
same,"(kp/Kd, dNTP)damaged",Dpo4•DNA binary complex; [8],0.00049 µM⁻¹ s⁻¹
same,kp,Dpo4•DNA binary complex; [20],0.25 ± 0.02 s⁻¹
same,"Efficiency Ratio (kp/Kd, dNTP)control/(kp/Kd, dNTP)damaged",Dpo4•DNA binary complex; [9],120
same,Probability,Dpo4•DNA binary complex; [10],98.93
same,"(kp/Kd, dNTP)damaged",Dpo4•DNA binary complex; [11],2.7e-06 µM⁻¹ s⁻¹
same,kp,Dpo4•DNA binary complex; [12],(4.3 ± 0.1) × 10^−4 s^−1
same,"Efficiency Ratio (kp/Kd, dNTP)control/(kp/Kd, dNTP)damaged",Dpo4•DNA binary complex; [13],12
same,Probability,Dpo4•DNA binary complex; [14],10.34
same,Fidelity,Dpo4•DNA binary complex; [14],1.1 × 10^−1
same,kp,Dpo4•DNA binary complex; [19],4.5 ± 0.7 s⁻¹
same,"Efficiency Ratio (kp/Kd, dNTP)control/(kp/Kd, dNTP)damaged",Dpo4•DNA binary complex; [16],11
same,Probability,Dpo4•DNA binary complex; [15],99.55
same,Kd,Dpo4•DNA binary complex; [17],32 ± 5 µM
same,Kd,Dpo4•DNA binary complex; [6],220 ± 80 µM
same,Kd,Dpo4•DNA binary complex; [18],160 ± 20 µM
same,Kd,Dpo4•DNA binary complex; [19],1400 ± 300 µM
Nc1nc2c(ncn2[C@H]2C[C@H](O)[C@@H](COP(=O)(O)OP(=O)(O)OP(=O)(O)O)O2)c(=O)[nH]1 [dGTP],"(kp/Kd, dNTP)damaged",Dpo4•DNA binary complex; [3],1.8e-05 µM⁻¹ s⁻¹
same,"Efficiency Ratio (kp/Kd, dNTP)control/(kp/Kd, dNTP)damaged",Dpo4•DNA binary complex; [4],1.6
same,Probability,Dpo4•DNA binary complex; [3],0.02
same,"(kp/Kd, dNTP)damaged",Dpo4•DNA binary complex; [5],0.0096 µM⁻¹ s⁻¹
same,kp,Dpo4•DNA binary complex; [6],0.48 ± 0.02 s⁻¹
same,"Efficiency Ratio (kp/Kd, dNTP)control/(kp/Kd, dNTP)damaged",Dpo4•DNA binary complex; [7],2.6
same,Probability,Dpo4•DNA binary complex; [5],99.82
same,"(kp/Kd, dNTP)damaged",Dpo4•DNA binary complex; [8],6.8e-07 µM⁻¹ s⁻¹
same,kp,Dpo4•DNA binary complex; [20],(8.1 ± 0.1) × 10^−4 s^−1
same,"Efficiency Ratio (kp/Kd, dNTP)control/(kp/Kd, dNTP)damaged",Dpo4•DNA binary complex; [9],66
same,Probability,Dpo4•DNA binary complex; [10],0.14
same,Fidelity,Dpo4•DNA binary complex; [10],1.4 × 10^−4
same,"(kp/Kd, dNTP)damaged",Dpo4•DNA binary complex; [11],2.2e-05 µM⁻¹ s⁻¹
same,kp,Dpo4•DNA binary complex; [12],(8.9 ± 0.7) × 10^−4 s^−1
same,"Efficiency Ratio (kp/Kd, dNTP)control/(kp/Kd, dNTP)damaged",Dpo4•DNA binary complex; [13],170
same,Probability,Dpo4•DNA binary complex; [14],84.26
same,"(kp/Kd, dNTP)damaged",Dpo4•DNA binary complex; [15],1.3e-06 µM⁻¹ s⁻¹
same,"Efficiency Ratio (kp/Kd, dNTP)control/(kp/Kd, dNTP)damaged",Dpo4•DNA binary complex; [16],6.5
same,Probability,Dpo4•DNA binary complex; [15],0.04
same,Fidelity,Dpo4•DNA binary complex; [15],4.1 × 10^−4
same,Kd,Dpo4•DNA binary complex; [17],350 ± 40 µM
same,Kd,Dpo4•DNA binary complex; [6],50 ± 9 µM
same,Kd,Dpo4•DNA binary complex; [18],400 ± 80 µM
same,Kd,Dpo4•DNA binary complex; [19],1100 ± 200 µM
"Nc1nc2c(nc(Nc3ccc4c5c(cccc35)C(=O)c3ccccc3-4)n2[C@H]2C[C@H](O)[C@@H](CO)O2)c(=O)[nH]1 [dG^C8-N-ABA, N-(2’-deoxyguanosin-8-yl)-3-aminobenzanthrone]",replication block among the three major 3-NBA derived DNA adducts,[2],strongest replication block
same,mutational frequency,[2]; primarily G-to-A transitions followed by G-to-T transversions,30.6%
Cc1cn([C@H]2C[C@H](O)[C@@H](COP(=O)(O)OP(=O)(O)OP(=O)(O)O)O2)c(=O)[nH]c1=O [dTTP],"(kp/Kd, dNTP)damaged",Dpo4•DNA binary complex; [3],1.6e-05 µM⁻¹ s⁻¹
same,"Efficiency Ratio (kp/Kd, dNTP)control/(kp/Kd, dNTP)damaged",Dpo4•DNA binary complex; [4],5.4
same,Probability,Dpo4•DNA binary complex; [3],0.02
same,"(kp/Kd, dNTP)damaged",Dpo4•DNA binary complex; [5],5.5e-06 µM⁻¹ s⁻¹
same,"Efficiency Ratio (kp/Kd, dNTP)control/(kp/Kd, dNTP)damaged",Dpo4•DNA binary complex; [7],1.6
same,Probability,Dpo4•DNA binary complex; [5],0.05
same,Fidelity,Dpo4•DNA binary complex; [5],5.7 × 10^−4
same,"(kp/Kd, dNTP)damaged",Dpo4•DNA binary complex; [8],1.6e-06 µM⁻¹ s⁻¹
same,"Efficiency Ratio (kp/Kd, dNTP)control/(kp/Kd, dNTP)damaged",Dpo4•DNA binary complex; [9],52
same,Probability,Dpo4•DNA binary complex; [10],0.32
same,"(kp/Kd, dNTP)damaged",Dpo4•DNA binary complex; [11],4e-07 µM⁻¹ s⁻¹
same,kp,Dpo4•DNA binary complex; [12],(1.7 ± 0.1) × 10^−4 s^−1
same,"Efficiency Ratio (kp/Kd, dNTP)control/(kp/Kd, dNTP)damaged",Dpo4•DNA binary complex; [13],4.5
same,Probability,Dpo4•DNA binary complex; [14],1.57
same,Fidelity,Dpo4•DNA binary complex; [14],1.8 × 10^−2
same,"(kp/Kd, dNTP)damaged",Dpo4•DNA binary complex; [15],2.2e-06 µM⁻¹ s⁻¹
same,"Efficiency Ratio (kp/Kd, dNTP)control/(kp/Kd, dNTP)damaged",Dpo4•DNA binary complex; [16],5.0
same,Probability,Dpo4•DNA binary complex; [15],0.07
same,Fidelity,Dpo4•DNA binary complex; [15],6.9 × 10^−4
same,Kd,Dpo4•DNA binary complex; [18],420 ± 80 µM
same,Kd,Dpo4•DNA binary complex; [19],770 ± 140 µM
B1,Kd,Dpo4 (DNA polymerase IV),5 ± 0.9 nM
B2,Kd,Dpo4 (DNA polymerase IV),29 ± 7 nM
